Experimental data: PMC6295246 (Clinical cancer research : an official journal of the …, 2018)

Key:
[1] = tested on: relapsed or refractory neuroblastoma; assay: Best objective response; format: in vivo, human; conditions: pooled Phase 1/2/OS
[2] = tested on: relapsed or refractory neuroblastoma; assay: Progression-free survival; format: in vivo, human; conditions: pooled Phase 1/2/OS
[3] = Alisertib plasma pharmacokinetics; format: in vivo, human; conditions: pooled phase 1, phase 2 and OS cohorts
[4] = tested on: relapsed and refractory neuroblastoma; conditions: phase 1, with irinotecan and temozolomide; cited from earlier work
[5] = Alisertib Day 5 trough > median, N=21
[6] = Alisertib Day 5 trough ≤ median, N=21
[7] = Alisertib exposure > median, N=21
[8] = Alisertib exposure ≤ median, N=21

COc1cc(Nc2ncc3c(n2)-c2ccc(Cl)cc2C(c2c(F)cccc2OC)=NC3)ccc1C(=O)O [alisertib]
Objective Response ([1]; > 2 Prior regimens, N=17): 24% | Objective Response ([1]; AURKA Codon 31 heterozygote, N=12): 25% | Objective Response ([1]; AURKA Codon 31 wild type, N=27): 19% | Objective Response ([1]; AURKA Codon 57 wild type, N=27): 19% | Objective Response ([1]; Age < 8 years, N=28): 18% | Objective Response ([1]; Age ≥ 4 years, N=47): 26% | Objective Response ([1]; Age ≥ 8 years, N=26): 27% | Objective Response ([1]; Alisertib Cmax > median, N=21): 19% | Objective Response ([1]; Alisertib Cmax ≤ median, N=21): 24% | Objective Response [1, 5]: 24% | Objective Response [1, 6]: 19% | Objective Response [1, 7]: 19% | Objective Response [1, 8]: 24% | Objective Response ([1]; Aurora A protein +, N=12): 17% | Objective Response ([1]; Aurora A protein −, N=18): 22% | Objective Response ([1]; Lin28B protein +, N=17): 12% | Objective Response ([1]; MYCN non-amplified, N=33): 27% | Objective Response ([1]; No prior irinotecan, N=36): 28% | Objective Response ([1]; No prior temozolomide, N=37): 27% | Objective Response ([1]; Prior temozolomide, N=17): 12% | Objective Response ([1]; UGT1A1 genotype 6 / 6, N=17): 35% | Objective Response ([1]; UGT1A1 genotype 6 / 7, N=17): 6% | Objective Response ([1]; UGT1A1 genotype 7 / 7, N=5): 20% | Objective Response ([1]; ≤ 2 Prior regimens, N=37): 22% | 1-Yr PFS ([2]; > 2 Prior regimens, N=17): 32% | 1-Yr PFS ([2]; AURKA Codon 31 wild type, N=27): 32% | 1-Yr PFS ([2]; AURKA Codon 57 heterozygote, N=13): 43% | 1-Yr PFS ([2]; Age ≥ 4 years, N=47): 42% | 1-Yr PFS ([2]; Age ≥ 8 years, N=26): 47% | 1-Yr PFS ([2]; Alisertib Cmax > median, N=21): 28% | 1-Yr PFS ([2]; Alisertib Cmax ≤ median, N=21): 55% | 1-Yr PFS [2, 5]: 45% | 1-Yr PFS [2, 6]: 33% | 1-Yr PFS [2, 7]: 41% | 1-Yr PFS [2, 8]: 38% | 1-Yr PFS ([2]; Lin 28B protein −, N=13): 34% | 1-Yr PFS ([2]; MYCN amplified or Myc/Mycn +, N=18): 12% | 1-Yr PFS ([2]; MYCN non-amplified, N=33): 47% | 1-Yr PFS ([2]; No prior irinotecan, N=36): 43% | 1-Yr PFS ([2]; No prior temozolomide, N=37): 41% | 1-Yr PFS ([2]; Prior temozolomide, N=17): 32% | 1-Yr PFS ([2]; UGT1A1 genotype 6 / 6, N=17): 57% | 1-Yr PFS ([2]; UGT1A1 genotype 6 / 7, N=17): 26% | 1-Yr PFS ([2]; UGT1A1 genotype 7 / 7, N=5): 40% | 1-Yr PFS ([2]; ≤ 2 Prior regimens, N=37): 42% | alisertib Day 5 trough in the first cycle, median [3]: 0.46 µM | estimated progression-free survival (PFS) rate at 2 years [4]: 52% | response rate [4]: 31.8%
